Reference: the NIST ThermoML archive (doi:10.1016/j.jct.2017.03.006)
Numbers after ± are expanded uncertainties.

Assay: xn = mol fraction of the nth substance listed
Conditions: Liquid; for viscosity: Concentric cylinders viscometry; for mass density: Vibrating tube method

Cc1ccc(C)c(C)c1 [1,2,4-trimethylbenzene] + CCC(C)O
Conditions	mass density [kg/m3]	viscosity [mPa·s]
323.15 K, 100 kPa, x2 = 0.7001	–	0.78 ± 0.017
323.15 K, 100 kPa, x2 = 0.7997	–	0.88 ± 0.019
323.15 K, 100 kPa, x2 = 0.9001	–	1.04 ± 0.022
333.15 K, 100 kPa, x2 = 0	843.6 ± 0.7	0.562 ± 0.012
333.15 K, 100 kPa, x2 = 0.1	835.7 ± 0.7	–
333.15 K, 100 kPa, x2 = 0.1001	–	0.558 ± 0.012
333.15 K, 100 kPa, x2 = 0.1989	829.2 ± 0.7	–
333.15 K, 100 kPa, x2 = 0.2261	–	0.554 ± 0.012
333.15 K, 100 kPa, x2 = 0.3	–	0.548 ± 0.012
333.15 K, 100 kPa, x2 = 0.3011	822.5 ± 0.7	–
333.15 K, 100 kPa, x2 = 0.3966	–	0.568 ± 0.013
333.15 K, 100 kPa, x2 = 0.4002	816 ± 0.7	–
333.15 K, 100 kPa, x2 = 0.5001	809.8 ± 0.7	–
333.15 K, 100 kPa, x2 = 0.5298	–	0.567 ± 0.012
333.15 K, 100 kPa, x2 = 0.5997	802.2 ± 0.7	–
333.15 K, 100 kPa, x2 = 0.6001	–	0.6 ± 0.013
333.15 K, 100 kPa, x2 = 0.6999	794.7 ± 0.7	–
333.15 K, 100 kPa, x2 = 0.7001	–	0.65 ± 0.014
333.15 K, 100 kPa, x2 = 0.7997	–	0.72 ± 0.016
333.15 K, 100 kPa, x2 = 0.7999	787.1 ± 0.7	–
333.15 K, 100 kPa, x2 = 0.9	779.1 ± 0.7	–
333.15 K, 100 kPa, x2 = 0.9001	–	0.82 ± 0.018
333.15 K, 1000 kPa, x2 = 0	844.4 ± 0.7	–
333.15 K, 1000 kPa, x2 = 0.1	836.5 ± 0.7	–
333.15 K, 1000 kPa, x2 = 0.1989	830 ± 0.7	–
333.15 K, 1000 kPa, x2 = 0.3011	823.3 ± 0.7	–
333.15 K, 1000 kPa, x2 = 0.4002	816.8 ± 0.7	–
333.15 K, 1000 kPa, x2 = 0.5001	810.7 ± 0.7	–
333.15 K, 1000 kPa, x2 = 0.5997	803.1 ± 0.7	–
333.15 K, 1000 kPa, x2 = 0.6999	795.6 ± 0.7	–
333.15 K, 1000 kPa, x2 = 0.7999	788 ± 0.7	–
333.15 K, 1000 kPa, x2 = 0.9	780 ± 0.7	–
333.15 K, 2000 kPa, x2 = 0	845.2 ± 0.7	–
333.15 K, 2000 kPa, x2 = 0.1	837.4 ± 0.7	–
333.15 K, 2000 kPa, x2 = 0.1989	830.9 ± 0.7	–
333.15 K, 2000 kPa, x2 = 0.3011	824.2 ± 0.7	–
333.15 K, 2000 kPa, x2 = 0.4002	817.8 ± 0.7	–
333.15 K, 2000 kPa, x2 = 0.5001	811.7 ± 0.7	–
333.15 K, 2000 kPa, x2 = 0.5997	804 ± 0.7	–
333.15 K, 2000 kPa, x2 = 0.6999	796.6 ± 0.7	–
333.15 K, 2000 kPa, x2 = 0.7999	789 ± 0.7	–
333.15 K, 2000 kPa, x2 = 0.9	781 ± 0.7	–
333.15 K, 5000 kPa, x2 = 0	847.6 ± 0.7	–
333.15 K, 5000 kPa, x2 = 0.1	840 ± 0.7	–
333.15 K, 5000 kPa, x2 = 0.1989	833.5 ± 0.7	–
333.15 K, 5000 kPa, x2 = 0.3011	826.9 ± 0.7	–
333.15 K, 5000 kPa, x2 = 0.4002	820.4 ± 0.7	–
333.15 K, 5000 kPa, x2 = 0.5001	814.4 ± 0.7	–
333.15 K, 5000 kPa, x2 = 0.5997	806.9 ± 0.7	–
333.15 K, 5000 kPa, x2 = 0.6999	799.5 ± 0.7	–
333.15 K, 5000 kPa, x2 = 0.7999	791.9 ± 0.7	–
333.15 K, 5000 kPa, x2 = 0.9	784 ± 0.7	–
333.15 K, 10000 kPa, x2 = 0	851.4 ± 0.7	–
333.15 K, 10000 kPa, x2 = 0.1	843.9 ± 0.7	–
333.15 K, 10000 kPa, x2 = 0.1989	837.6 ± 0.7	–
333.15 K, 10000 kPa, x2 = 0.3011	831.1 ± 0.7	–
333.15 K, 10000 kPa, x2 = 0.4002	824.7 ± 0.7	–
333.15 K, 10000 kPa, x2 = 0.5001	818.7 ± 0.7	–
333.15 K, 10000 kPa, x2 = 0.5997	811.3 ± 0.7	–
333.15 K, 10000 kPa, x2 = 0.6999	803.9 ± 0.7	–
333.15 K, 10000 kPa, x2 = 0.7999	796.5 ± 0.7	–
333.15 K, 10000 kPa, x2 = 0.9	788.6 ± 0.7	–
333.15 K, 15000 kPa, x2 = 0	855.1 ± 0.7	–
333.15 K, 15000 kPa, x2 = 0.1	847.9 ± 0.7	–
333.15 K, 15000 kPa, x2 = 0.1989	841.6 ± 0.7	–
333.15 K, 15000 kPa, x2 = 0.3011	835.1 ± 0.7	–
333.15 K, 15000 kPa, x2 = 0.4002	828.8 ± 0.7	–
333.15 K, 15000 kPa, x2 = 0.5001	822.9 ± 0.7	–
333.15 K, 15000 kPa, x2 = 0.5997	815.5 ± 0.7	–
333.15 K, 15000 kPa, x2 = 0.6999	808.2 ± 0.7	–
333.15 K, 15000 kPa, x2 = 0.7999	800.8 ± 0.7	–
333.15 K, 15000 kPa, x2 = 0.9	793 ± 0.7	–
333.15 K, 20000 kPa, x2 = 0	858.6 ± 0.7	–
333.15 K, 20000 kPa, x2 = 0.1	851.6 ± 0.7	–
333.15 K, 20000 kPa, x2 = 0.1989	845.4 ± 0.7	–
333.15 K, 20000 kPa, x2 = 0.3011	839 ± 0.7	–
333.15 K, 20000 kPa, x2 = 0.4002	832.7 ± 0.7	–
333.15 K, 20000 kPa, x2 = 0.5001	826.9 ± 0.7	–
333.15 K, 20000 kPa, x2 = 0.5997	819.5 ± 0.7	–
333.15 K, 20000 kPa, x2 = 0.6999	812.3 ± 0.7	–
333.15 K, 20000 kPa, x2 = 0.7999	805 ± 0.7	–
333.15 K, 20000 kPa, x2 = 0.9	797.2 ± 0.7	–
333.15 K, 30000 kPa, x2 = 0	865.3 ± 0.7	–
333.15 K, 30000 kPa, x2 = 0.1	858.6 ± 0.7	–
333.15 K, 30000 kPa, x2 = 0.1989	852.5 ± 0.7	–
333.15 K, 30000 kPa, x2 = 0.3011	846.2 ± 0.7	–
333.15 K, 30000 kPa, x2 = 0.4002	840.1 ± 0.8	–
333.15 K, 30000 kPa, x2 = 0.5001	834.4 ± 0.8	–
333.15 K, 30000 kPa, x2 = 0.5997	827.1 ± 0.8	–
333.15 K, 30000 kPa, x2 = 0.6999	819.9 ± 0.8	–
333.15 K, 30000 kPa, x2 = 0.7999	812.7 ± 0.8	–
333.15 K, 30000 kPa, x2 = 0.9	805 ± 0.8	–
333.15 K, 40000 kPa, x2 = 0	871.6 ± 0.8	–
333.15 K, 40000 kPa, x2 = 0.1	865.1 ± 0.8	–
333.15 K, 40000 kPa, x2 = 0.1989	859.1 ± 0.8	–
333.15 K, 40000 kPa, x2 = 0.3011	852.9 ± 0.8	–
333.15 K, 40000 kPa, x2 = 0.4002	846.8 ± 0.8	–
333.15 K, 40000 kPa, x2 = 0.5001	841.2 ± 0.8	–
333.15 K, 40000 kPa, x2 = 0.5997	834.1 ± 0.8	–
333.15 K, 40000 kPa, x2 = 0.6999	826.9 ± 0.8	–
